From patent publication US7868135B2, “Compositions of lipopeptide antibiotic derivatives and methods of use thereof” (priority 2003, dated 2011)

Assays:
[1] = system: Staphylococcus epidermidis SEP0375 (MRSE); assay: Broad spectrum MIC, Table 17/18 column I; type: cell-based; conditions: condition I of Table 17, in µg/mL
Description: (§1) The antimicrobial lipopeptide derivatives described herein were tested for antimicrobial activity against Gram-positive bacteria as follows. The minimum inhibitory concentrations (MIC) of the antimicrobial lipopeptide derivatives of the invention were determined using NCCLS guidelines M7-A6 (2003) with a slight modification in that doubling serial dilutions were used to dilute the test compounds. The broth phase microdilution method was used. Isolated colonies of Staphylococcus aureus (MSSA) from an 18-24 hour blood agar plate cultures were used to inoculate cation adjusted Mueller-Hinton broth (CAMHB) supplemented with 0.625 mM calcium. […] A negative control containing media alone and a positive growth control containing bacteria with media alone were also included. MICs were determined after incubating the plates at about 37° C. for 24 hours. […] In Tables 1 to 16, R is the core cyclic peptide of amphomycin or aspartocin, which can be in the form of a β-isomer, an anhydro, a dianhydro, or any combination thereof. […] Furthermore, a person of skill in the art will appreciate that all the pounds, or groups of compounds, derived from the various combinations of and substituents shown in Tables 1 to 16, are disclosed by the present the same extent as if each compound or group of compounds was set forth individually.
(§2) Antimicrobial lipopeptide derivatives of the instant invention were tested for antimicrobial activity against Gram-positive bacteria in a variety of media conditions. The […] (MIC) of the antimicrobial lipopeptide derivatives were determined as described in Example 376. The various media used are described in Table 17.

[2] = system: Streptococcus pneumoniae SPN0023 (PRSP); assay: Broad spectrum MIC, Table 17/18 column K; type: cell-based; conditions: condition K of Table 17, in µg/mL
Description: as §1, §2

[3] = system: Streptococcus pyogenes SPY0001 (PenS); assay: Broad spectrum MIC, Table 17/18 column M; type: cell-based; conditions: condition M of Table 17, in µg/mL
Description: as §1, §2

[4] = system: Enterococcus faecium EFM0101 (VRE, MDR); assay: Broad spectrum MIC, Table 17/18 column A; type: cell-based; conditions: condition A of Table 17, in µg/mL
Description: as §1, §2

[5] = system: Staphylococcus aureus SAU0031 (VISA); assay: Broad spectrum MIC, Table 17/18 column G; type: cell-based; conditions: condition G of Table 17, in µg/mL
Description: as §1, §2

[6] = system: Streptococcus pneumoniae SPN0032 (PSSP); assay: Broad spectrum MIC, Table 17/18 column L; type: cell-based; conditions: condition L of Table 17, in µg/mL
Description: as §1, §2

in vivo = conditions: male, Sprague Dawley, rat, plasma, iv, 10 mg/kg
Description: Yet other exemplary in vivo models can be used to characterize the pharmacokinetics and pharmacodynamic parameters of antimicrobial compounds of this disclosure. Some parameters that can be measured include an in vivo half-life of a compound, elimination rate and clearance, volume of distribution, and bioavailability. For example, briefly, compounds can be administered as a single i.v. or oral (p.o.) dose in mice or rats. At various time points (ranging from 1 minute to 72 hours), blood from treated animals is collected and the concentration of lipopeptide derivative in the ex vivo plasma can be quantified by, for example, liquid chromatography with mass spectrometric detection (LC/MS). After quantification, pharmacokinetics parameters can be calculated using methods known in the art, such as a one compartment model with mono-exponential decay and linear regression analysis (see, e.g., Fantin et al., Antimicrob. Agents Chemotherap. 35: 1413. 1991).
A pharmacokinetic parameter that can be measured, and which aids in determining efficacy, after a single i.v. administration of an antimicrobial lipopeptide derivative of the instant disclosure is the systemic half-life of the compound. Briefly, test compounds were dissolved in a 5% mannitol solution (pH was then adjusted) to a concentration of 1 mg/mL (w/v). A single intravenous injection in the lateral caudal vein of Swiss CD1 mice (5 to 6 weeks old, female) or Sprague Dawley rats (male) was used to administer the lipopeptide derivative at a final dose of 10 mg/kg. At various time points (ranging from about 4 minutes to about 24 hours for mice, and 48 or 72 hours for rats) mice were sacrificed and blood was harvested. The concentration of lipopeptide derivative in ex vivo plasma was quantified using liquid chromatography (LC) with mass spectrometric detection (MS).

[7] = system: Enterococcus faecalis EFS0004 (VSE); assay: Broad spectrum MIC, Table 17/18 B, C, D (CAMHB; + 0.625 mM calcium; + calcium and 30% bovine serum); type: cell-based; conditions: in µg/mL; for MIC, media condition B: condition B: CAMHB; for MIC, media condition C: condition C: + 0.625 mM calcium; for MIC, media condition D: condition D: + calcium and 30% bovine serum
Description: as §1, §2

[8] = system: S. aureus Smith (SAU0017, ATCC 19636); assay: Intraperitoneal murine model of protection against infection (ED50, Table 21); type: in vivo, Staphylococcus aureus; conditions: Swiss CD1 mice infected i.p., compound i.v.
[9] = system: Staphylococcus aureus SAU0017 (MSSA); assay: Broad spectrum MIC, Table 17/18 columns E, F (+ 0.625 mM calcium; + calcium and 30% bovine serum); type: cell-based; conditions: in µg/mL; for MIC, media condition E: condition E: + 0.625 mM calcium; for MIC, media condition F: condition F: + calcium and 30% bovine serum
Description: as §1, §2

[10] = In vivo half-life after single i.v. administration, mice; conditions: female, Swiss CD1, mouse, plasma, iv, 10 mg/kg
[11] = system: Staphylococcus aureus SAU0065 (MRSA); assay: Broad spectrum MIC, Table 17/18 column H; type: cell-based; conditions: condition H of Table 17, in µg/mL
Description: as §1, §2

[12] = system: Streptococcus pneumoniae SPN0002 (PISP); assay: Broad spectrum MIC, Table 17/18 column J; type: cell-based; conditions: condition J of Table 17, in µg/mL
Description: as §1, §2

Row | Compound | MIC, media condition I [1] | MIC, media condition K [2] | MIC, media condition M [3] | MIC, media condition A [4] | MIC, media condition G [5] | MIC, media condition L [6] | half-life (in vivo) [h] | MIC, media condition B [7] | MIC, media condition C [7] | MIC, media condition D [7] | ED50 in Mice, S. aureus (SAU0017) [8] [mg/kg] | MIC, media condition E [9] | MIC, media condition F [9] | half-life [10] [h] | MIC, media condition H [11] | MIC, media condition J [12]
1 | CCCCCCCCCCCCCCC(=O)NC(CC(=O)O)C(=O)NC1C(=O)N2CCCCC2C(=O)NC(C(C)C(=O)O)C(=O)NC(CC(=O)O)C(=O)NCC(=O)NC(CC(=O)O)C(=O)NCC(=O)NC(C(C)NC(=O)CNC(=O)[C@@H](N)CCCCN)C(=O)NC(C(C)C)C(=O)N2CCCC2C(=O)NC1C (some centres unmarked) [Compound 4, C15-Amphomycin-9-Gly-Lys] | 1-2 | 0.25 | 0.25 | 1 | 8 | 0.25-0.5 | 1.09 | 1-4 | 1-2 | >64 | 6.2 | 0.5-1 | 4 | 0.752 | 1-4 | 0.25
2 | CCCCCCCCCCCCCCC(=O)NC(CC(=O)O)C(=O)NC1C(=O)N2CCCCC2C(=O)NC(C(C)C(=O)O)C(=O)NC(CC(=O)O)C(=O)NCC(=O)NC(CC(=O)O)C(=O)NCC(=O)NC(C(C)NC(=O)CCN)C(=O)NC(C(C)C)C(=O)N2CCCC2C(=O)NC1C (stereo not drawn) [Compound 147, C15-Amphomycin-9-(β-Ala)] | 0.5-1 | 0.125 | 0.125 | 0.5-1 | 2 | 0.125 | 4.58 | 2 | 0.5-1 | 32 | 6.5 | 0.25-0.5 | 2 | 8.02 | 1 | 0.125
3 | CCCCCCCCCCCCCCC(=O)NC(CC(=O)O)C(=O)NC1C(=O)N2CCCCC2C(=O)NC(C(C)C(=O)O)C(=O)NC(CC(=O)O)C(=O)NCC(=O)NC(CC(=O)O)C(=O)NCC(=O)NC(C(C)NC(=O)CN(C)C(=O)[C@@H](N)CCCCN)C(=O)NC(C(C)C)C(=O)N2CCCC2C(=O)NC1C (some centres unmarked) [Compound 199, C15-Amphomycin-9-Sar-Lys] | 0.5-1 | 0.25 | 0.25 | 0.5-1 | 4-8 | 0.25-0.5 | – | 1-2 | 1-2 | 64 | 8 | 0.25-1 | 4-8 | 6.18 | 1-2 | 0.25
